Experimental data: patent publication US12590099B2, “Inhibitors of histone deacetylase useful for the treatment or prevention of HIV infection” (Merck Sharp & Dohme LLC, priority 2018, dated 2026)
Read-outs that look alike come from different tables or passages of the source.

How the values were obtained:
Assay type in all cases: biochemical
Recombinant human HDAC2 = biological target: T1, Recombinant human HDAC2 (Homo sapiens, UniProt Q92769); test: Human HDAC enzyme inhibitor Fluor-de-Lys assay, HDAC2
T1 construct: Full length human HDAC2-FLAG was expressed in baculovirus infected Sf9 cells; FLAG (C); made in house; host or cells: Sf9 (baculovirus)
Method in brief: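 Fluor-de-Lys format at room temperature (23° C.): compounds titrated 10-point, 1:3, preincubated with HDAC before substrate addition. Developer with excess HDAC inhibitor ends the reaction, and trypsin-liberated AMC fluorescence is the read-out.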

[1] = biological target: T2, Recombinant human HDAC3/SMRT heterodimer (Homo sapiens, UniProt O15379); test: Human HDAC enzyme inhibitor Fluor-de-Lys assay, HDAC3/SMRT
T2 construct: FLAG (C); made in house

HDAC6 = biological target: T3, HDAC6 (Homo sapiens, UniProt Q9UBN7); test: Human HDAC enzyme inhibitor Fluor-de-Lys assay, HDAC6
T3 sequence (Q9UBN7 1-1215): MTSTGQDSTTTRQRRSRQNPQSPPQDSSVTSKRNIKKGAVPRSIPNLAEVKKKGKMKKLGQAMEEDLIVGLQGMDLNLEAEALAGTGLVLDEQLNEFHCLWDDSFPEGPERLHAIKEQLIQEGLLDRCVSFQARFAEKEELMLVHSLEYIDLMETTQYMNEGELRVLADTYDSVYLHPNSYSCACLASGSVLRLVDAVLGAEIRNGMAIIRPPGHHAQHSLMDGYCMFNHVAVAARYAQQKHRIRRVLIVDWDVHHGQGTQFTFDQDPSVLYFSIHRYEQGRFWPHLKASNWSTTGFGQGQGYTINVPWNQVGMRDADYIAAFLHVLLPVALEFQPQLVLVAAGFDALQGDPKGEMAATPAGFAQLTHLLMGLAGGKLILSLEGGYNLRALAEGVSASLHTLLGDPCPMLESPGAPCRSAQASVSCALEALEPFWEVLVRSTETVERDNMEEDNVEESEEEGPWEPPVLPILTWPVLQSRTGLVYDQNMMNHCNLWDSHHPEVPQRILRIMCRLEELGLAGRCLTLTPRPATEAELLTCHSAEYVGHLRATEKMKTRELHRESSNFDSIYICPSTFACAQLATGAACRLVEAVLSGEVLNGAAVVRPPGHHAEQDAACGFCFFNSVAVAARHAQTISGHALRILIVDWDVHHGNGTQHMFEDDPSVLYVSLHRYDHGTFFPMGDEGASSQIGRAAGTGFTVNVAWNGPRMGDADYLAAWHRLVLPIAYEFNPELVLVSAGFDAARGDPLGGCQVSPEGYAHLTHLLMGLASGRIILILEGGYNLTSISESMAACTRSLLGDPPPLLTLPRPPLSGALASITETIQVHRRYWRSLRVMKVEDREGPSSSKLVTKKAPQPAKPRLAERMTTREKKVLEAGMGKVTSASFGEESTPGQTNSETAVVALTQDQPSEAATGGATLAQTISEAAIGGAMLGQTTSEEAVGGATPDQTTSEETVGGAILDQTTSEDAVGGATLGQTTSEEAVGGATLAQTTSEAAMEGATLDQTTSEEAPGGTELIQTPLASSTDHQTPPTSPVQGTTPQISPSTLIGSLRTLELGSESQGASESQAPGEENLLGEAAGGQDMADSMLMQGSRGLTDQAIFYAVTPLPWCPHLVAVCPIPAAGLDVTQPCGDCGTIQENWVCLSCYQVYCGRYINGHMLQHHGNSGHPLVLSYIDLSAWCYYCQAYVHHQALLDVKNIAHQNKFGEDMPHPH

Recombinant human HDAC8 = biological target: T4, Recombinant human HDAC8 (Homo sapiens, UniProt Q9BY41); test: Human HDAC enzyme inhibitor Fluor-de-Lys assay, HDAC8
T4 construct: purchased Enzo Life Sciences BML-SE145-0100
T4 sequence (Q9BY41 1-377): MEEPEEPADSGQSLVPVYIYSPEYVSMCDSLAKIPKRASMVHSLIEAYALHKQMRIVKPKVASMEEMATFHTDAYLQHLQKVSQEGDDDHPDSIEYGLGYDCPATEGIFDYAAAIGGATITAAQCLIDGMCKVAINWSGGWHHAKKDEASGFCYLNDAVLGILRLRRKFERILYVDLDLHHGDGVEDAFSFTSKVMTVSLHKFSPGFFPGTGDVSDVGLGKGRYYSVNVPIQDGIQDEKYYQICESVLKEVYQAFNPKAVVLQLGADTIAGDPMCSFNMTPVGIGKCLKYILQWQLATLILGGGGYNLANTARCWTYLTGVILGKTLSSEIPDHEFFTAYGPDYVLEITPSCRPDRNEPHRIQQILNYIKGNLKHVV

[2] = recombinant human HDAC2, Fluor-de-Lys assay
[3] = recombinant human HDAC3/SMRT, Fluor-de-Lys assay
[4] = recombinant human HDAC8, Fluor-de-Lys assay

T2 sequence (O15379 whole entry): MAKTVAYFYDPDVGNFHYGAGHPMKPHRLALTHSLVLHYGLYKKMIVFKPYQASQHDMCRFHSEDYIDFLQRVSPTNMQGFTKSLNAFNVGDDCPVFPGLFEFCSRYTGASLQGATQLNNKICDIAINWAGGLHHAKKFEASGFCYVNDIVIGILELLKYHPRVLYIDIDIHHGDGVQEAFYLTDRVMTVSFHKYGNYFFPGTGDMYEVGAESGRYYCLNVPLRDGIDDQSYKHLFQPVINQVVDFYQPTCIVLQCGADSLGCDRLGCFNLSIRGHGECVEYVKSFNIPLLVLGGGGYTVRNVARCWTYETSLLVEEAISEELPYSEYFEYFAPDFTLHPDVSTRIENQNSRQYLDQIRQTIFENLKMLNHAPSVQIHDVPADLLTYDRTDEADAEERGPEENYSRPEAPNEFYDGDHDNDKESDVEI
T2 sequence (Q9Y618 1-899 partner limits assumed): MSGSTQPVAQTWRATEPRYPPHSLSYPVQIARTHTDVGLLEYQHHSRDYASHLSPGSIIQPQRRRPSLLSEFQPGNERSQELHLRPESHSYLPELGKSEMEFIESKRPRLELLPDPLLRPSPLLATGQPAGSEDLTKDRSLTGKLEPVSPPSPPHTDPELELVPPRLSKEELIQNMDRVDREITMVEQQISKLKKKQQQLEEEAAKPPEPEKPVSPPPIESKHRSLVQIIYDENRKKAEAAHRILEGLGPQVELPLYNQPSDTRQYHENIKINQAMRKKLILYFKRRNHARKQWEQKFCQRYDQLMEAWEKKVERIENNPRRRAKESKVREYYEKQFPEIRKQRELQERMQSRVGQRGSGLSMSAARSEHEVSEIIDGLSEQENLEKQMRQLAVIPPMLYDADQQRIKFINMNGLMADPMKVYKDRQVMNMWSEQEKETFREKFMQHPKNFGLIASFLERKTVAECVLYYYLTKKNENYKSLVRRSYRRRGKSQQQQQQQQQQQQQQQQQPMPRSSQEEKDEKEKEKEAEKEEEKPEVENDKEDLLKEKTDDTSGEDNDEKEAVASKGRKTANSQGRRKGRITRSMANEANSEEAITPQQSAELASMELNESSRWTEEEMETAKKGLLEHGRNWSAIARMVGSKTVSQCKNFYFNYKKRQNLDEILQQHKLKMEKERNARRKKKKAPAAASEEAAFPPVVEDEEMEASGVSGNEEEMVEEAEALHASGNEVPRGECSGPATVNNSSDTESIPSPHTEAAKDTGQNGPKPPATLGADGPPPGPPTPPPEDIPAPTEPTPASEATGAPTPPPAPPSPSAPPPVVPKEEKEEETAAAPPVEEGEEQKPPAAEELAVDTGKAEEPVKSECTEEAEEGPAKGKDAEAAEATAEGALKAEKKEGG
T1 sequence (Q92769 whole entry): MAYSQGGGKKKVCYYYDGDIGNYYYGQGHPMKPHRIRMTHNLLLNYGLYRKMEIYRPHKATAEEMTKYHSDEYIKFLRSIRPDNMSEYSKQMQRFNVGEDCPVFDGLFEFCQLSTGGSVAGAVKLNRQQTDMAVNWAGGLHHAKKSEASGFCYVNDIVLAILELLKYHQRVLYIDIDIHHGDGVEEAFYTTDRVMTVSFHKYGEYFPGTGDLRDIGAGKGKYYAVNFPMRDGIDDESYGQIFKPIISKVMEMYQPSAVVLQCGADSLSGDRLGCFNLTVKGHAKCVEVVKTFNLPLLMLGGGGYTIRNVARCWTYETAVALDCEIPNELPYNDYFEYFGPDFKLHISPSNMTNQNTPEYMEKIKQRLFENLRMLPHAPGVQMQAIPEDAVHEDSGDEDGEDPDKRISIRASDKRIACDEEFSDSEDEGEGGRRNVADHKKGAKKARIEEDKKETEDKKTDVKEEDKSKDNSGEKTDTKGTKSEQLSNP

| SMILES | IC50 (Recombinant human HDAC2; [2]) [nM] | IC50 [1, 3] [nM] | IC50 (HDAC6; HDAC6, Fluor-de-Lys assay) [nM] | IC50 (Recombinant human HDAC8; [4]) [nM] | IC50 (Recombinant human HDAC2) [nM] | IC50 [1] [nM] | IC50 (HDAC6) [nM] | IC50 (Recombinant human HDAC8) [nM] |
| --- | --- | --- | --- | --- | --- | --- | --- | --- |
| CCCn1cc(-c2[nH]c(-c3ccc(F)cc3)nc2C(CCCCCC(=O)CC)NC(=O)C2CC23CCN(CC)CC3)cn1 (stereo not drawn) [Compound 254] | 131 | 29.6 | > 45000 | 38700 | – | – | – | – |
| CCC(=O)CCCCC[C@H](NC(=O)[C@H]1CC12CCN(C)CC2)c1ncc(-c2ccc(F)cc2)[nH]1 [Compound 280] | 122 | 10.6 | 11100 | 10800 | – | – | – | – |
| CCC(=O)CCCCC[C@H](NC(=O)[C@H]1CC12CCN(C)CC2)c1ncc(-c2ccccc2F)[nH]1 [Compound 290] | 73.5 | 4.08 | 5990 | 5230 | – | – | – | – |
| CCC(=O)CCCCC[C@H](NC(=O)CC1CC2(CNC2)C1)c1ncc(-c2ccccc2)[nH]1 [Compound 297] | 120 | 9.69 | 8170 | 8460 | – | – | – | – |
| CCC(=O)CCCCC[C@@H](NC(=O)C1CCC2(CC1)CN(C)C2)c1ncc(-c2ccccc2)[nH]1 [Compound 310] | 167 | 10.4 | 6050 | 6500 | – | – | – | – |
| CCC(=O)CCCCC[C@H](NC(=O)CC1CC2(C1)CN(C(C)C)C2)c1ncc(-c2cc3ccccc3nc2OC)[nH]1 [Compound 273] | 3.4 | < 1.5 | 400 | 1960 | – | – | – | – |
| CCC(=O)CCCCC[C@H](NC(=O)C1=NOC2(CCN(C)CC2)C1)c1ncc(-c2ccc(-c3cnccn3)cc2OC)o1 [Compound 237, N-{(1S)-1-[5-(2-methoxy-4-pyrazin-2-ylphenyl)-1,3-oxazol-2-yl]-7-oxononyl}-8-methyl-1-oxa-2,8-diazaspiro[4.5]dec-2-ene-3-carboxamide] | 27.2 | 6.06 | > 900 | > 900 | – | – | – | – |
| CCC(=O)CCCCC[C@H](NC(=O)[C@H]1CC12CCN(C(C)C)CC2)c1ncc(-c2ccc3nc(C)ccc3c2)[nH]1 [Compound 83] | – | – | – | – | < 1.5 | < 1.5 | 2620 | 15200 |
| CCC(=O)CCCCC[C@H](NC(=O)C1=NOC2(CCN(C)CC2)C1)c1ncc(-c2cc3ccc(C)nc3cc2F)[nH]1 [Compound 232] | 21.4 | 4.47 | > 900 | > 900 | – | – | – | – |
| CCC(=O)CCCCC[C@H](NC(=O)[C@H]1CC12CCN(CC)CC2)c1ncc(-c2ccc3nn(C4CC4)cc3c2)[nH]1 [Compound 238] | 1.9 | 0.27 | 7780 | 6500 | – | – | – | – |
| CCC(=O)CCCCC[C@H](NC(=O)[C@H]1CC12CCN(C(C)C)CC2)c1ncc(-c2ccc3nc(C4CC4)ccc3c2)[nH]1 [Compound 100] | – | – | – | – | < 1.5 | < 1.5 | 11900 | 8250 |
| CCC(=O)CCCCC[C@H](NC(=O)[C@H]1CC12CCN(CC1CC1)CC2)c1ncc(-c2cc3ccn(C)c(=O)c3cc2OC)o1 [Compound 229] | 0.7 | 0.21 | 451 | > 900 | – | – | – | – |
| CCC(=O)CCCCC[C@H](NC(=O)[C@H]1CC12CCN(C)CC2)c1[nH]c(-c2ccc(F)cc2)nc1Cl [Compound 91] | – | – | – | – | 14.2 | 3.26 | 27500 | 31900 |
| CCC(=O)CCCCC[C@H](NC(=O)C1CCC2(CC1)CN(C(C)C)C2)c1ncc(-c2cc3ccccc3nc2OC)[nH]1 [Compound 272] | 8.2 | < 1.5 | 449 | 1250 | – | – | – | – |
| CCC(=O)CCCCC[C@H](NC(=O)C1=NOC2(CCN(CC)CC2)C1)c1ncc(-c2cc3ccc(C)nc3cc2F)o1 [Compound 269] | 36.7 | 8.3 | > 900 | > 900 | – | – | – | – |
| CCC(=O)CCCCC[C@H](NC(=O)[C@H]1CC12CCN(CC)CC2)c1ncc(-c2cnc3cc(C(F)(F)F)ccc3c2)[nH]1 [Compound 341] | 2.5 | 0.43 | 8970 | 11900 | – | – | – | – |
| CCC(=O)CCCCC[C@@H](NC(=O)C1CCC2(CC1)CNC2)c1ncc(-c2ccccc2)[nH]1 [Compound 298] | 144 | 10.4 | 5070 | 1690 | – | – | – | – |
| CCC(=O)CCCCC[C@H](NC(=O)[C@H]1CC12CCN(CC)CC2)c1ncc(-c2ccc(-c3ncco3)cc2)o1 [Compound 94] | – | – | – | – | 34 | 4.01 | 2300 | 44200 |
| CCC(=O)CCCCC[C@H](NC(=O)C1CC12CCN(CC)CC2)c1nc(-c2ccc(F)cc2)[nH]c1-c1cccs1 (stereo partly drawn) [Compound 252] | 185 | 66.1 | 33900 | 29600 | – | – | – | – |
| CCC(=O)CCCCC[C@H](NC(=O)C1=NOC2(CCN(CC)CC2)C1)c1ncc(-c2cc3ccc(=O)n(C)c3cc2OC)o1 [Compound 235] | 12.4 | 2.19 | > 900 | > 900 | – | – | – | – |
| CCC(=O)CCCCC[C@H](NC(=O)CC1CC2(C1)CN(C)C2)c1ncc(-c2ccccc2)[nH]1 [Compound 307] | 617 | 16.9 | 12100 | 13500 | – | – | – | – |
